Laboratory results: ChEMBL document CHEMBL1158123, “Rubrisandrins A and B, lignans and related anti-HIV compounds from Schisandra rubriflora” (J Nat Prod, 2006)
Activity calls are given as the source filed them. The rule behind the calls is not given here.

Legend:
[1] = tested on: H9; experiment: Cytotoxicity against human H9 cells after 4 days; format: cell-based; conditions: H9, 96 h
[2] = Therapeutic index, ratio of IC50 for human H9 cells to EC50 for HIV1 3B; format: cell-based; conditions: read-out: Ratio IC50/EC50
[3] = tested on: Human immunodeficiency virus 1; experiment: Antiviral activity against HIV1 3B in H9 cells after 4 days by p24-antigen ELISA; format: functional, organism-based; conditions: for EC50: Human immunodeficiency virus 1, 3B, H9, 96 h

SMILES	IC50 [1] [µM]	selectivity ratio [2]	EC50 [3] [µM]	Activity [3]
COc1cc2c(c(OC)c1OC)-c1c(cc3c(c1O)OCO3)C[C@H](C)[C@H](C)C2	47.1	19.4	2.4	
COc1cc2c(c(O)c1OC)-c1c(cc3c(c1OC)OCO3)C[C@H](C)[C@H](C)C2 (racemic)	44.5	> 68	< 0.65	
C/C=C(/C)C(=O)O[C@@H]1c2cc(OC)c(OC)c(OC)c2-c2c(cc3c(c2OC)OCO3)C[C@H](C)[C@@]1(C)O [ANGELOYLGOMISIN P]	> 49			inactive
COc1cc2c(c(OC)c1OC)-c1c(cc(OC)c(OC)c1OC)C[C@H](C)[C@@H](C)C2 [DEOXYSCHISANDRIN]	> 60			inactive
COc1cc2c(c(O)c1OC)-c1c(cc(OC)c(OC)c1OC)C[C@@H](C)[C@@H](C)C2 [SCHISANHENOL]	42	7.4	5.7	
C/C=C(/C)C(=O)O[C@H]1c2cc(OC)c(OC)c(OC)c2-c2c(cc3c(c2OC)OCO3)C[C@H](C)[C@]1(C)O [SCHISANTHERIN B]	> 49	1.2	40	
COc1cc2c(c(OC)c1OC)-c1c(cc(OC)c(OC)c1OC)C[C@](C)(O)[C@@H](C)C2 [SCHIZANDRIN]	> 58			inactive
C/C=C(\C)C(=O)O[C@@H]1c2cc(OC)c(OC)c(OC)c2-c2c(cc3c(c2OC)OCO3)C[C@H](C)[C@@]1(C)O [TIGLOYLGOMISIN P]	> 49	1.3	37	
Cc1cn([C@H]2C[C@H](N=[N+]=[N-])[C@@H](CO)O2)c(=O)[nH]c1=O [ZIDOVUDINE]			0.023	
